# Experimental data taken from article PMC11720106, “Synthesis of Pyrazole-Based Inhibitors of the Bacterial Enzyme N-Succinyl-L,L-2,6-Diaminopimelic Acid Desuccinylase (DapE) as Potential Antibiotics” (International Journal of Molecular Sciences, 2024).
# “And” between values parts separate entries of the source, which are not always exact repeats. Equal entries are not always repeated.
# How the values were obtained:
# [1] = molecular target: T1, HiDapE (Haemophilus influenzae, UniProt P44514); test: Discontinuous ninhydrin-based HiDapE inhibition assay; format: biochemical; conditions: 8 nM HiDapE, 2 mM N6-methyl-L,L-SDAP; for IC50: 5–200 μM inhibitor; for inhibition at 100 µM: pH 7.5, 100 μM inhibitor
# Experimental: Inhibitory Assay Protocol: A discontinuous inhibition assay was performed utilizing a Techne PCR Thermal Cycler System. The volume of each component was adjusted to fit a total reaction volume of 100 μL. The final potential inhibitor concentration was 100 μM for pyrazoles 7a–7r for screening experiments or 5–200 μM for IC50 experiments. All potential inhibitors were dissolved in neat dimethylsulfoxide (DMSO), and the pre-assay concentrations were adjusted to give a final concentration of 5% DMSO in the assay. The final HiDapE concentration was 8 nM. To a 50 mM HEPES (pH 7.5) buffered solution at 30 °C was added the selected inhibitor followed by HiDapE and incubated for 10 min. N^6-Methyl-L,L-SDAP (2 mM) was added, and the mixture was allowed to react for 10 min, followed by heating at 100 °C for 1 min and then cooled to 0 °C for 1 min. A 2% ninhydrin solution (100 μL) was added, and the mixture was mixed well by rapid pipetting while cooled at 0 °C. The reaction was then heated at 80 °C for 15 min. The absorbance of an 80 μL aliquot was recorded at 570 nm on a BioTek Synergy 2 microplate reader (Biotek Instruments, Winooski, VT, USA). All inhibition assays were performed in triplicate. The data were then exported and analyzed using Prism (version 10.4.1, GraphPad Prism, Boston, MA, USA).
# [2] = molecular target: T1, HiDapE; test: Discontinuous kinetic competition assay with HiDapE; format: biochemical
# Experimental: We performed kinetic competition assays to investigate and confirm the binding mode of the pyrazole inhibitors. […] The velocity of the HiDapE enzyme was measured with different concentrations of substrate from 0 to 100 μM, and the plot is shown in Figure 2. After running the AICc statistical analysis to compare noncompetitive and competitive models, it was determined that a competitive binding mode is over 100 times more likely than noncompetitive binding with a 99.2% probability.
# Kinetic assay Protocol: A discontinuous kinetic assay was performed utilizing a Techne PCR Thermal Cycler System. The volume of each component was adjusted to fit a total reaction volume of 100 μL. The final potential inhibitor concentration was 0, 20, 40, 60, and 100 μM for pyrazole 7r, where the inhibitor was dissolved in dimethylsulfoxide (DMSO), and the pre-assay concentrations were adjusted to give a final concentration of 5% DMSO in the assay. The in-assay HiDapE concentration was 8 nM. To a 50 mM HEPES (pH 7.5) buffered solution at 30 °C was added the selected inhibitor followed by HiDapE and incubated for 10 min. N^6-Methyl-L,L-SDAP at varied concentrations (0–8 mM) were added, and the mixture was allowed to react for 10 min, followed by heating at 100 °C for 1 min and then cooled to 0 °C for 1 min. A 2% ninhydrin solution (50 μL) was added, and the mixture was mixed well by rapid pipetting while cooled at 0 °C. The reaction was then heated at 80 °C for 15 min. The absorbance of an 80 μL aliquot was recorded at 570 nm on a BioTek Synergy 2 microplate reader. All concentrations were performed in triplicate. The data were then exported and analyzed using Prism using a non-linear regression Michaelis–Menten equation and using AICc statistical analysis to determine which inhibitory binding mode was preferred.
# [3] = molecular target: T1, HiDapE; test: Thermal shift assay (SYPRO Orange); format: binding; conditions: for Tm1 (HiDapE): 200 nM enzyme, 10X dye
# Experimental: A thermal shift assay was conducted to observe changes in the thermal stability of DapE under various concentrations of the inhibitor (R)-7q, as summarized in Table 2. These studies were conducted on a Step One Real-Time PCR System^TM (Applied Biosystems, Waltham, MA, USA) and associated QuantStudio software (Version 7) through the fluorescence of the SYPRO Orange dye (Fisher Scientific, Waltham, MA, USA) during protein denaturation. We also used the thermal shift assay results to calculate the Ki value of pyrazole (R)-7q. […] Additionally, we observed a subsequent Tm2 at 78.0 °C involving a destabilization of the enzyme, as shown by the approximate −3 °C negative shift in melt temperature as the inhibitor increases in concentration, indicating at this elevated temperature that the inhibitor is binding to primarily the molten globule state. We have previously observed the second melt temperature with the DapE enzyme.
# Thermal Shift Assay Protocol: Thermal shift studies were conducted on a Step One Real-Time PCR System and the associated QuantStudio software. Protein denaturation was measured by detecting the change in fluorescence of the SYPRO Orange dye. HiDapE was used at a final concentration of 200 nM, and SYPRO Orange was used at a final concentration of 10×. The experiment was carried out in 10 μL triplicates in 50 mM HEPES buffer at pH 7.5 in nanopure water, and the inhibitor concentrations were selected based on the half-maximal inhibitory concentration (IC50) values of the inhibitor. Sample solutions were dispensed into a 96-well optical reaction plate (Thermo Fisher Scientific, Kalamazoo, MI, USA), and the plate was sealed with an optical PCR plate sheet (Thermo Fisher Scientific, Kalamazoo, MI, USA). The assay was run according to Bhayani. Melting curves were obtained from the negative derivative and exported from the instrument to Microsoft Excel (Version 2402). The negative first derivatives of the melting curves were differentiated into the […]. Tm values were plotted against the log [concentration], and the Ki values were calculated using a derived Van’t Hoff equation according to Bhayani
# T1 sequence (P44514 whole entry): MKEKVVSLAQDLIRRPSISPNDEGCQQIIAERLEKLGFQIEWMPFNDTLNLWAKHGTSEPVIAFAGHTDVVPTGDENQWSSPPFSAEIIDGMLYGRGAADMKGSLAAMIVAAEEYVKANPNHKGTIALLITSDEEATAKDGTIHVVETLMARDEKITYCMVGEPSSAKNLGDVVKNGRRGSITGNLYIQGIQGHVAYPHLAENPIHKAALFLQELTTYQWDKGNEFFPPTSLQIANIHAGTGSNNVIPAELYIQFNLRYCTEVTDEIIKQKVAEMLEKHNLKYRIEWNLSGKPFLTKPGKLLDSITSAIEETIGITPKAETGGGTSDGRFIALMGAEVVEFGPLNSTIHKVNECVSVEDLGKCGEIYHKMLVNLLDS
smiles,measurement,setting,value
"Cc1cc(SCC(=O)Nc2nccs2)n(-c2ccccc2)n1 [Compound 7a, 2-((3-Methyl-1-phenyl-1H-pyrazol-5-yl)thio)-N-(thiazol-2-yl)acetamide]",IC50,[1]; pH 7.5,22.4 µM
same,inhibition at 100 µM,[1]; triplicate,95.2 ± 0.6%
"Cc1cc(SCC(=O)Nc2ccon2)n(-c2ccccc2)n1 [Compound 7b, N-(Isoxazol-3-yl)-2-((3-methyl-1-phenyl-1H-pyrazol-5-yl)thio)acetamide]",inhibition at 100 µM,[1]; triplicate,20.3 ± 3.6%
"Cc1cc(SCC(=O)Nc2ccccc2)n(-c2ccccc2)n1 [Compound 7c, 2-((3-Methyl-1-phenyl-1H-pyrazol-5-yl)thio)-N-phenylacetamide]",inhibition at 100 µM,[1]; triplicate,80.5 ± 3%
"Cc1cc(SCC(=O)Nc2ccccn2)n(-c2ccccc2)n1 [Compound 7d, 2-((3-Methyl-1-phenyl-1H-pyrazol-5-yl)thio)-N-(pyridine-2-yl)acetamide]",IC50,[1]; pH 7.5,17.9 µM
same,inhibition at 100 µM,[1]; triplicate,85.7 ± 1.2%
"Cc1ccc(NC(=O)CSc2cc(C)nn2-c2ccccc2)nc1 [Compound 7e, 2-((3-Methyl-1-phenyl-1H-pyrazol-5-yl)thio)-N-(5-methylpyridin-2-yl)acetamide]",inhibition at 100 µM,[1]; triplicate,64.3 ± 5.5%
"Cc1cc(SCC(=O)Nc2ccc(Cl)cn2)n(-c2ccccc2)n1 [Compound 7f, N-(5-Chloropyridin-2-yl)-2-((3-methyl-1-phenyl-1H-pyrazol-5-yl)thio)acetamide]",inhibition at 100 µM,[1]; triplicate,54.2 ± 0.3%
"Cc1cc(SCC(=O)Nc2ncccn2)n(-c2ccccc2)n1 [Compound 7g, 2-((3-Methyl-1-phenyl-1H-pyrazol-5-yl)thio)-N-(pyrimidin-2-yl)acetamide]",inhibition at 100 µM,[1]; triplicate,32.4 ± 3.4%
"Cc1cc(SCC(=O)Nc2cnccn2)n(-c2ccccc2)n1 [Compound 7h, 2-((3-Methyl-1-phenyl-1H-pyrazol-5-yl)thio)-N-(pyrazin-2-yl)acetamide]",IC50,[1]; pH 7.5,20.2 µM
same,inhibition at 100 µM,[1]; triplicate,96.2%
"CCN(CC)C(=O)CSc1cc(C)nn1-c1ccccc1 [Compound 7j, N,N-Diethyl-2-((3-methyl-1-phenyl-1H-pyrazol-5-yl)thio)acetamide]",inhibition at 100 µM,[1]; triplicate,47.4 ± 7.2%
"Cc1cc(SCC(=O)Nc2nc3ccccc3[nH]2)n(-c2ccccc2)n1 [Compound 7k, N-(1H-Benzo[d]imidazol-2-yl)-2-((3-methyl-1-phenyl-1H-pyrazol-5-yl)thio)acetamide]",inhibition at 100 µM,[1]; triplicate,36.9 ± 2.7%
"Cc1cc(SC(C)C(=O)Nc2nccs2)n(-c2ccccc2)n1 (centres unmarked) [Compound 7l, 2-((3-Methyl-1-phenyl-1H-pyrazol-5-yl)thio)-N-(thiazol-2-yl)propanamide]",inhibition at 100 µM,[1]; triplicate,28 ± 1.8%
"Cc1cc(SC(C)C(=O)Nc2ccon2)n(-c2ccccc2)n1 (centres unmarked) [Compound 7m, N-(Isoxazol-3-yl)-2-((3-methyl-1-phenyl-1H-pyrazol-5-yl)thio)propanamide]",inhibition at 100 µM,[1]; triplicate,19.5 ± 0.1%
"Cc1cc(SC(C)C(=O)Nc2ccccc2)n(-c2ccccc2)n1 (centres unmarked) [Compound 7n, 2-((3-Methyl-1-phenyl-1H-pyrazol-5-yl)thio)-N-phenylpropanamide]",inhibition at 100 µM,[1]; triplicate,79.4 ± 3.6%
"Cc1cc(SC(C)C(=O)NCc2ccccc2)n(-c2ccccc2)n1 (centres unmarked) [Compound 7o, N-Benzyl-2-((3-methyl-1-phenyl-1H-pyrazol-5-yl)thio)propanamide]",inhibition at 100 µM,[1]; triplicate,63.2 ± 1.8%
"Cc1cc(SC(C)C(=O)Nc2ccccn2)n(-c2ccccc2)n1 (centres unmarked) [Compound 7p, 2-((3-Methyl-1-phenyl-1H-pyrazol-5-yl)thio)-N-(pyridine-2-yl)propanamide]",IC50,[1]; pH 7.5,35.6 µM and 35.7 µM
same,inhibition at 100 µM,[1]; triplicate,97.4 ± 2%
"Cc1cc(S[C@H](C)C(=O)Nc2ccccn2)n(-c2ccccc2)n1 [Compound 7q, (R)-2-((3-Methyl-1-phenyl-1H-pyrazol-5-yl)thio)-N-(pyridine-2-yl)propanamide]",% Inhibition at 100 μM,"[1]; 100 μM inhibitor, pH 7.5, triplicate",99.1 ± 1.6%
same,IC50,[1]; pH 7.5,18.8 µM
same,inhibition at 100 µM,[1]; triplicate,99%
same,binding mode (mode of inhibition),[2]; AICc comparison of competitive and noncompetitive models,competitive
same,likelihood of competitive over noncompetitive binding,[2]; AICc statistical analysis,over 100 times
same,probability of competitive binding mode,[2]; AICc statistical analysis,99.2%
same,Tm1 (HiDapE),[3]; 1 μM inhibitor,50.8 +/− 0.6 °C
same,Tm1 (HiDapE),[3]; 5 μM inhibitor,50.1 +/− 0.1 °C
same,Tm1 (HiDapE),[3]; 10 μM inhibitor,50.2 +/− 0.1 °C
same,Tm1 (HiDapE),[3]; 20 μM inhibitor,52.7 +/− 0.3 °C
same,Tm1 (HiDapE),[3]; 40 μM inhibitor,55.7 +/− 0.3 °C
same,Tm1 (HiDapE),[3]; 60 μM inhibitor,60.6 +/− 0.7 °C
same,Tm1 (HiDapE),[3]; 80 μM inhibitor,61.3 +/− 0.5 °C
same,Tm1 (HiDapE),[3]; 100 μM inhibitor,63.1 +/− 0.2 °C
same,Tm,[3]; as stated in the abstract,50.2 °C
same,Ki,"[3]; calculated from positive melt temperature shift at Tm1, Van't Hoff equation",17.3 ± 2.8 µM
same,shift in melt temperature at Tm2,"[3]; negative shift as the inhibitor increases in concentration, Tm2 78.0 °C",~−3 °C
same,shift in melt temperature at Tm1,"[3]; positive shift as the inhibitor increases in concentration, Tm1 50.2 °C",+13 °C
"Cc1cc(S[C@@H](C)C(=O)Nc2ccccn2)n(-c2ccccc2)n1 [Compound 7r, (S)-2-((3-Methyl-1-phenyl-1H-pyrazol-5-yl)thio)-N-(pyridine-2-yl)propanamide]",inhibition at 100 µM,[1]; triplicate,14.6 ± 9.5%
